US9963496B2, “Stable glucagon analogues and use for treatment of hypoglycaemia” (Novo Nordisk A/S, priority 2014, dated 2018)
*1 amine or outer side, *2 acyl side, *3 side chain or, on linkers, in order; H or OH if unused. Where a SMILES comes first, the peptide text is derived from it. Side-chain parts run from the residue outwards. The star is where a group is joined. γGlu = O=C(O)[C@H](CCC(=O)[*:2])N[*:1]; Desaminohistidyl = O=C(CCc1c[nH]cn1)*

Columns and labels:
[1] = target: T1, human glucagon receptor (Homo sapiens, UniProt P47871); assay: Assay (I)(b): glucagon receptor activation, CRE luciferase reporter gene assay in BHK cells; type: cell-based; conditions: BHK cells expressing human glucagon receptor and CRE luciferase, 3 h incubation; read-out: EC50 hGlucagonR
T1 construct: expressed in transfected cells; host or cells: BHK cells, clone BHK hGCGR A3*25; isolated membranes
T1 sequence (P47871 26-477): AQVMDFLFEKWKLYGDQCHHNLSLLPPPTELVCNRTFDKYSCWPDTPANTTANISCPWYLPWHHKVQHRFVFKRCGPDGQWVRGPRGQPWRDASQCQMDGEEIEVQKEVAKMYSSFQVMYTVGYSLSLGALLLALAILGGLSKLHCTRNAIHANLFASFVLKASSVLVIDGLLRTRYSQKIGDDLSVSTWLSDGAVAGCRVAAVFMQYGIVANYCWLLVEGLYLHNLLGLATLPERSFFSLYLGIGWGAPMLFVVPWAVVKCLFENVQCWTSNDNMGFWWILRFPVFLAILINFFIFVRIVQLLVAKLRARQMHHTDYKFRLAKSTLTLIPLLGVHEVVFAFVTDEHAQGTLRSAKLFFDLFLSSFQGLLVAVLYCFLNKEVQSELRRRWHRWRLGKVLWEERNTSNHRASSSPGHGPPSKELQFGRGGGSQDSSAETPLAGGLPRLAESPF
Procedure: The purpose of this assay is to test the activity, or potency, of the derivatives of the invention, in vitro. The in vitro potency is the measure of human GLP-1 receptor and/or glucagon receptor activation, respectively, in a whole cell assay.
In vitro potency was determined by measuring the response of human GLP-1 or glucagon receptor, respectively, in a reporter gene assay. The assay was performed in a stably transfected BHK cell line that expressed either the human GLP-1 receptor or the human glucagon receptor and contained the DNA for the cAMP response element (CRE) coupled to a promoter and the gene for firefly luciferase (CRE luciferase). […] When assay incubation was completed, the luciferase substrate (luciferin) was added and the enzyme converted luciferin to oxyluciferin and produced bioluminescence. The luminescence was measured as the readout for the assay.
(b) Glucagon Receptor Activation
The cells used in this assay (clone pLJ6′-4-25) were BHK cells with BHK570 as a parent cell line expressing the CRE luciferase gene (clone BHK/KZ10-20-48) and were established by further transfection with the human glucagon receptor (clone pLJ6′ in pHZ-1 vector).
The cells were cultured at 5% CO2 in DMEM medium with 10% FBS, 1× GlutaMAX, 1 mg/mL G418, 240 nM MTX (methotrexate) and 1% pen/strep (penicillin/streptomycin). They were aliquoted and stored in liquid nitrogen. Before each assay, an aliquot was taken up and washed three times in PBS before being suspended at the desired concentration in assay buffer. For 96-well plates the suspension was made to give a final concentration of 5×10 EE3 cells/well.
Assay Medium consisted of DMEM w/o phenol red, 10 mM Hepes, lx GlutaMAX, 2% Ovalbumin and 0.2% Pluronic F-68.
Cell stocks were thawed in a 37° C. water bath. Cells were washed three times in PBS. The cells were counted and adjusted to 5×10 EE3 cells/50 μl (1×10 EE5 cells/mL) in Assay Medium. A 50 μl aliquot of cells was transferred to each well in the assay plate.
Stocks of the test compounds and reference compounds were diluted to a concentration of […] in Assay Medium. Compounds were diluted 10-fold to give the following concentrations: […], 2×10 EE-7 M, 2×10 EE-8 M; 2×10 EE-9 M, 2×10 EE-10 M, 2×10 EE-11 M, 2×10 EE-12 M and 2×10 EE-13 M. For each compound a blank assay buffer control was also included.
A 50 μl aliquot of compound or blank was transferred from the dilution plate to the assay plate. Compounds were tested at the following final concentrations: 1×10 EE-6 M, 1×10 EE-7 M, 1×10 EE-8 M; 1×10 EE-9 M, 1×10 EE-10 M, 1×10 EE-11 M and 1×10 EE-12 M and 1×10 EE-13 M.
The assay plate was incubated for 3 h in a 5% CO2 incubator at 37° C. The assay plate was removed from the incubator and allowed to stand at room temperature for 15 min. A 100 μl aliquot of steadylite plus reagent was added to each well of the assay plate (reagent is light sensitive). Each assay plate was covered with aluminum foil to protect it from light and shaken for 30 min at room temperature. Each assay plate was read in a Packard TopCount NXT instrument.
The data from the TopCount instrument was transferred to GraphPad Prism software. The software performed a non-linear regression (log(agonist) vs response-Variable slope (four parameter)). EC50 values were calculated by the software and reported in pM.

[2] = physchem; type: physicochemical; conditions: pH 7.5
Procedure, shortened: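 Peptide at 250 μM in 10 mM HEPES pH 7.5 with 1 μM Thioflavin T, incubated at 37° C with 960 rpm orbital shaking. ThT fluorescence (ex 444/em 485 nm) read every 20 min; lag-time (t0−2τ) and kapp (1/τ) from curve fit. Recovery is post-assay supernatant peptide by RP-HPLC as % of initial.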

Row | SMILES | EC50 [1] [pM] | recovery at 250 μM [2] [%]
1 | CC(=O)N[C@@H](CCC(=O)N[C@@H](CCC(=O)N[C@@H](CCC(=O)N[C@@H](CCC(=O)N[C@@H](CCC(=O)NCCCC[C@H](NC(=O)[C@@H](NC(=O)[C@H](Cc1ccccc1)NC(=O)[C@H](CCC(=O)O)NC(=O)[C@H](CCC(N)=O)NC(=O)[C@H](C)NC(=O)[C@H](CCCNC(=N)N)NC(=O)[C@H](CCCNC(=N)N)NC(=O)[C@H](CO)NC(=O)[C@H](CCC(=O)O)NC(=O)[C@H](CC(C)C)NC(=O)[C@H](Cc1ccc(O)cc1)NC(=O)[C@H](CCCCN)NC(=O)[C@H](CO)NC(=O)[C@H](Cc1ccc(O)cc1)NC(=O)[C@H](CC(=O)O)NC(=O)[C@H](CO)NC(=O)[C@@H](NC(=O)[C@H](Cc1ccccc1)NC(=O)[C@@H](NC(=O)CNC(=O)[C@H](Cc1c[nH]cn1)NC(=O)[C@H](CO)NC(=O)CCc1c[nH]cn1)[C@@H](C)O)[C@@H](C)O)C(C)C)C(=O)N[C@@H](Cc1c[nH]c2ccccc12)C(=O)N[C@@H](CC(C)C)C(=O)N[C@@H](CC(C)C)C(=O)N[C@@H](CO)C(=O)N[C@H](C(=O)O)[C@@H](C)O)C(=O)O)C(=O)O)C(=O)O)C(=O)O)C(=O)O [Example 19, N^ϵ24-[(4S)-4-[[(4S)-4-[[(4S)-4-[[(4S)-4-[[(4S)-4-acetamido-4-carboxybutanoyl]amino]-4-carboxybutanoyl]amino]-4-carboxybutanoyl]amino]-4-carboxybutanoyl]amino]-4-carboxybutanoyl]-[Imp1, His3, Glu15, Glu21, Lys24, Leu27, Ser28]-Glucagon] (Desaminohistidyl-SHGTFTSDYSKYLESRRAQEFVK([γGlu-γGlu-γGlu-γGlu-γGlu-Ac])WLLST-OH) | 6 | 104
2 | CC(=O)N[C@@H](CCC(=O)N[C@@H](CCC(=O)N[C@@H](CCC(=O)N[C@@H](CCC(=O)NCCCC[C@H](NC(=O)[C@@H](NC(=O)[C@H](Cc1ccccc1)NC(=O)[C@H](CC(=O)O)NC(=O)[C@H](CCC(N)=O)NC(=O)[C@H](C)NC(=O)[C@H](CCCNC(=N)N)NC(=O)[C@H](CCCNC(=N)N)NC(=O)[C@H](C)NC(=O)[C@H](CC(=O)O)NC(=O)[C@H](CC(C)C)NC(=O)[C@H](Cc1ccc(O)cc1)NC(=O)[C@H](CCCCN)NC(=O)[C@H](CO)NC(=O)[C@H](Cc1ccc(O)cc1)NC(=O)[C@H](CC(=O)O)NC(=O)[C@H](CO)NC(=O)[C@@H](NC(=O)[C@H](Cc1ccccc1)NC(=O)[C@@H](NC(=O)CNC(=O)[C@H](Cc1c[nH]cn1)NC(=O)[C@H](CO)NC(=O)CCc1c[nH]cn1)[C@@H](C)O)[C@@H](C)O)C(C)C)C(=O)N[C@@H](Cc1c[nH]c2ccccc12)C(=O)N[C@@H](CC(C)C)C(=O)N[C@@H](CC(C)C)C(=O)N[C@@H](CO)C(=O)N[C@H](C(=O)O)[C@@H](C)O)C(=O)O)C(=O)O)C(=O)O)C(=O)O [Example 20, N^ϵ24-[(4S)-4-[[(4S)-4-[[(4S)-4-[[(4S)-4-acetamido-4-carboxybutanoyl]amino]-4-carboxybutanoyl]amino]-4-carboxybutanoyl]amino]-4-carboxybutanoyl]-[Imp1, His3, Ala16, Lys24, Leu27, Ser28]-Glucagon] (Desaminohistidyl-SHGTFTSDYSKYLDARRAQDFVK([γGlu-γGlu-γGlu-γGlu-Ac])WLLST-OH) | 4 | 105
3 | CC(=O)N[C@@H](CCC(=O)N[C@@H](CCC(=O)N[C@@H](CCC(=O)N[C@@H](CCC(=O)NCCCC[C@H](NC(=O)[C@H](CO)NC(=O)[C@H](CC(C)C)NC(=O)[C@H](CC(C)C)NC(=O)[C@H](Cc1c[nH]c2ccccc12)NC(=O)[C@H](CCC(N)=O)NC(=O)[C@@H](NC(=O)[C@H](Cc1ccccc1)NC(=O)[C@H](CCC(=O)O)NC(=O)[C@H](CCC(N)=O)NC(=O)[C@H](C)NC(=O)[C@H](CCCNC(=N)N)NC(=O)[C@H](CCCNC(=N)N)NC(=O)[C@H](CO)NC(=O)[C@H](CCC(=O)O)NC(=O)[C@H](CC(C)C)NC(=O)[C@H](Cc1ccc(O)cc1)NC(=O)[C@H](CCCCN)NC(=O)[C@H](CO)NC(=O)[C@H](Cc1ccc(O)cc1)NC(=O)[C@H](CC(=O)O)NC(=O)[C@H](CO)NC(=O)[C@@H](NC(=O)[C@H](Cc1ccccc1)NC(=O)[C@@H](NC(=O)CNC(=O)[C@H](Cc1c[nH]cn1)NC(=O)[C@H](CO)NC(=O)CCc1c[nH]cn1)[C@@H](C)O)[C@@H](C)O)C(C)C)C(=O)O)C(=O)O)C(=O)O)C(=O)O)C(=O)O [Example 15, N^ϵ29-[(4S)-4-[[(4S)-4-[[(4S)-4-[[(4S)-4-acetamido-4-carboxybutanoyl]amino]-4-carboxybutanoyl]amino]-4-carboxybutanoyl]amino]-4-carboxybutanoyl]-[Imp1, His3, Glu15, Glu21, Leu27, Ser28, Lys29]-Glucagon] (Desaminohistidyl-SHGTFTSDYSKYLESRRAQEFVQWLLSK([γGlu-γGlu-γGlu-γGlu-Ac])-OH) | 4 | 88
4 | CC(=O)N[C@@H](CCC(=O)N[C@@H](CCC(=O)N[C@@H](CCC(=O)N[C@@H](CCC(=O)NCCCC[C@H](NC(=O)[C@H](CCC(N)=O)NC(=O)[C@H](C)NC(=O)[C@H](CCCNC(=N)N)NC(=O)[C@H](CCCNC(=N)N)NC(=O)[C@H](CO)NC(=O)[C@H](CCC(=O)O)NC(=O)[C@H](CC(C)C)NC(=O)[C@H](Cc1ccc(O)cc1)NC(=O)[C@H](CCCCN)NC(=O)[C@H](CO)NC(=O)[C@H](Cc1ccc(O)cc1)NC(=O)[C@H](CC(=O)O)NC(=O)[C@H](CO)NC(=O)[C@@H](NC(=O)[C@H](Cc1ccccc1)NC(=O)[C@@H](NC(=O)CNC(=O)[C@H](Cc1c[nH]cn1)NC(=O)[C@H](CO)NC(=O)CCc1c[nH]cn1)[C@@H](C)O)[C@@H](C)O)C(=O)N[C@@H](Cc1ccccc1)C(=O)N[C@H](C(=O)N[C@@H](CCC(N)=O)C(=O)N[C@@H](Cc1c[nH]c2ccccc12)C(=O)N[C@@H](CC(C)C)C(=O)N[C@@H](CC(C)C)C(=O)N[C@@H](CO)C(=O)N[C@H](C(=O)O)[C@@H](C)O)C(C)C)C(=O)O)C(=O)O)C(=O)O)C(=O)O [Example 13, Nϵ^21-[(4S)-4-[[(4S)-4-[[(4S)-4-[[(4S)-4-acetamido-4-carboxybutanoyl]amino]-4-carboxybutanoyl]amino]-4-carboxybutanoyl]amino]-4-carboxybutanoyl]-[Imp1, His3, Glu15, Lys21, Leu27, Ser28]-Glucagon] (Desaminohistidyl-SHGTFTSDYSKYLESRRAQK([γGlu-γGlu-γGlu-γGlu-Ac])FVQWLLST-OH) | 17 | 39
5 | CC(=O)N[C@@H](CCC(=O)N[C@@H](CCC(=O)N[C@@H](CCC(=O)NCCCC[C@H](NC(=O)[C@@H](NC(=O)[C@H](Cc1ccccc1)NC(=O)[C@H](CCC(=O)O)NC(=O)[C@H](CCC(N)=O)NC(=O)[C@H](C)NC(=O)[C@H](CCCNC(=N)N)NC(=O)[C@H](CCCNC(=N)N)NC(=O)[C@H](CO)NC(=O)[C@H](CCC(=O)O)NC(=O)[C@H](CC(C)C)NC(=O)[C@H](Cc1ccc(O)cc1)NC(=O)[C@H](CCCCN)NC(=O)[C@H](CO)NC(=O)[C@H](Cc1ccc(O)cc1)NC(=O)[C@H](CC(=O)O)NC(=O)[C@H](CO)NC(=O)[C@@H](NC(=O)[C@H](Cc1ccccc1)NC(=O)[C@@H](NC(=O)CNC(=O)[C@H](Cc1c[nH]cn1)NC(=O)[C@H](CO)NC(=O)CCc1c[nH]cn1)[C@@H](C)O)[C@@H](C)O)C(C)C)C(=O)N[C@@H](Cc1c[nH]c2ccccc12)C(=O)N[C@@H](CC(C)C)C(=O)N[C@@H](CC(C)C)C(=O)N[C@@H](CO)C(=O)N[C@H](C(=O)O)[C@@H](C)O)C(=O)O)C(=O)O)C(=O)O [Example 18, N^ϵ24-[(4S)-4-[[(4S)-4-[[(4S)-4-acetamido-4-carboxybutanoyl]amino]-4-carboxybutanoyl]amino]-4-carboxybutanoyl]-[Imp1, His3, Glu15, Glu21, Lys24, Leu27, Ser28]-Glucagon] (Desaminohistidyl-SHGTFTSDYSKYLESRRAQEFVK([γGlu-γGlu-γGlu-Ac])WLLST-OH) | 6 | 100
